Measurements taken from ChEMBL document CHEMBL6153075, “Design, synthesis, and antitumor evaluation of triazolopyridine derivatives as novel inhibitors for BRD4” (Eur J Med Chem, 2025).

How the values were obtained:
HL-60 = test: Antiproliferative activity against human HL-60 cells; type: functional, cell-based
MV4-11 [1] = test: Antiproliferative activity against human MV4-11 cells
MV4-11 [2] = test: Induction of apoptosis in human MV4-11 cells incubated for 72 hrs by Annexin V-FITC/PI staining based flow cytometry; type: functional, cell-based; details: dose 0.25-10 µM
HCT-116 = test: Antiproliferative activity against human HCT-116 cells; type: functional, cell-based
[3] = Metabolic stability in human liver microsomes assessed as clearance preincubated for 5 mins followed by NADPH addition measured for 5 to 90 mins by LC-MS/MS analysis; type: ADME, Microsome; details: time 10-95 min, read-out: CLH
[4] = Metabolic stability in human liver microsomes assessed as half life preincubated for 5 mins followed by NADPH addition measured for 5 to 90 mins by LC-MS/MS analysis; type: ADME, Microsome; details: time 10-95 min
[5] = Volume of distribution at steady state in ICR mouse at 1 mg/kg, iv measured for 5 to 480 mins by LC-MS/MS analysis; type: ADME, organism-based; details: in vivo, time 5-480 min
[6] = Cmax in ICR mouse at 10 mg/kg, po measured for 5 to 480 mins by LC-MS/MS analysis; type: ADME, organism-based; details: in vivo, time 5-480 min
[7] = Cmax in ICR mouse at 1 mg/kg, iv measured for 5 to 480 mins by LC-MS/MS analysis; type: ADME, organism-based; details: in vivo, time 5-480 min
[8] = AUC (0 to t) in ICR mouse at 1 mg/kg, iv measured for 5 to 480 mins by LC-MS/MS analysis; type: ADME, organism-based; details: in vivo, time 5-480 min
[9] = MRT in ICR mouse at 10 mg/kg, po measured for 5 to 480 mins by LC-MS/MS analysis; type: ADME, organism-based; details: in vivo, time 5-480 min
[10] = Clearance in ICR mouse at 10 mg/kg, po measured for 5 to 480 mins by LC-MS/MS analysis; type: ADME, organism-based; details: in vivo, time 5-480 min
[11] = Drug uptake in ICR mouse plasma at 1 mg/kg, iv measured for 5 to 480 mins by LC-MS/MS analysis; type: ADME, organism-based; details: in vivo, time 5-480 min
[12] = Tmax in ICR mouse at 1 mg/kg, iv measured for 5 to 480 mins by LC-MS/MS analysis; type: ADME, organism-based; details: in vivo, time 5-480 min
[13] = Tmax in ICR mouse at 10 mg/kg, po measured for 5 to 480 mins by LC-MS/MS analysis; type: ADME, organism-based; details: in vivo, time 5-480 min
[14] = Blood concentration elimination rate constant for the terminal phase in ICR mouse at 10 mg/kg, po measured for 5 to 480 mins by LC-MS/MS analysis; type: ADME, organism-based; details: time 5-480 min, read-out: LambdaZ (converted)
[15] = AUC (0 to infinity) in ICR mouse at 1 mg/kg, iv measured for 5 to 480 mins by LC-MS/MS analysis; type: ADME, organism-based; details: in vivo, time 5-480 min
[16] = Drug uptake in ICR mouse plasma at 10 mg/kg, po measured for 5 to 480 mins by LC-MS/MS analysis; type: ADME, organism-based; details: in vivo, time 5-480 min
[17] = AUC (0 to t) in ICR mouse at 10 mg/kg, po measured for 5 to 480 mins by LC-MS/MS analysis; type: ADME, organism-based; details: in vivo, time 5-480 min
[18] = Oral bioavailability in ICR mouse at 10 mg/kg measured for 5 to 480 mins by LC-MS/MS analysis; type: ADME, organism-based; details: in vivo, time 5-480 min
[19] = Half life in ICR mouse at 10 mg/kg, po measured for 5 to 480 mins by LC-MS/MS analysis; type: ADME, organism-based; details: in vivo, time 5-480 min
[20] = Half life in ICR mouse at 1 mg/kg, iv measured for 5 to 480 mins by LC-MS/MS analysis; type: ADME, organism-based; details: in vivo, time 5-480 min
[21] = Clearance in ICR mouse at 1 mg/kg, iv measured for 5 to 480 mins by LC-MS/MS analysis; type: ADME, organism-based; details: in vivo, time 5-480 min
MV4-11 [22] = test: Induction of apoptosis in human MV4-11 cells at 0.25 to 10 uM incubated for 72 hrs by Annexin V-FITC/PI staining based flow cytometry (reference value: 43.2 %); type: functional; details: dose 0.25-10 µM
[23] = AUC (0 to infinity) in ICR mouse at 10 mg/kg, po measured for 5 to 480 mins by LC-MS/MS analysis; type: ADME, organism-based; details: in vivo, time 5-480 min
[24] = MRT in ICR mouse at 1 mg/kg, iv measured for 5 to 480 mins by LC-MS/MS analysis; type: ADME, organism-based; details: in vivo, time 5-480 min
[25] = Blood concentration elimination rate constant for the terminal phase in ICR mouse at 1 mg/kg, iv measured for 5 to 480 mins by LC-MS/MS analysis; type: ADME, organism-based; details: time 5-480 min, read-out: LambdaZ (converted)

Compound: Cc1sc2c(c1C)C(c1ccc(Cl)cc1)=N[C@@H](CC(=O)OC(C)(C)C)c1nnc(C)n1-2
- IC50 (HL-60): 3150 nM
- IC50 (MV4-11 [1]): 30 nM
- Activity (MV4-11 [2]): Dose-dependent-effect
- IC50 (HCT-116): 2700 nM

Compound: Cc1nnc2ccc(-c3nc4cnc(N5CCOCC5)cn4c3Nc3ccc(C(F)(F)F)cc3)cn12
- microsomal CLint [3]: 4.52 µL/min/mg
- IC50 (MV4-11 [1]): 290 nM
- half-life [4]: 2.56 h

Compound: COc1ccc(Nc2c(-c3ccc4nnc(C)n4c3)nc3cnc(N4CCOCC4)cn23)cc1
- IC50 (MV4-11 [1]): 560 nM
- IC50 (HCT-116): 4490 nM

Compound: Cc1nnc2ccc(-c3nc4cnc(N5CCOCC5)cn4c3Nc3cccc(F)c3)cn12
- IC50 (MV4-11 [1]): 870 nM

Compound: CCc1nnc2ccc(-c3nc4cnc(-c5cnn(C)c5)cn4c3Nc3ccc(F)cc3Br)cn12
- Vdss [5]: 3 10^-4(mg/kg)/(ng/ml)
- microsomal CLint [3]: 0.3 µL/min/mg
- Cmax [6]: 5480 ng/mL
- Cmax [7]: 4410 ng/mL
- IC50 (MV4-11 [1]): 20 nM
- half-life [4]: 38.6 h
- AUC(0-t) [8]: 4640 ng·h/mL
- MRT [9]: 3.9 h
- CL [10]: 0.001 (mg/kg)/(ng/ml)/hr
- Drug uptake [11]: Active
- Tmax [12]: 4.8 min
- Tmax [13]: 0.5 h
- k el [14]: 9.72e-05 s⁻¹
- AUC(0-inf) [15]: 4660 ng·h/mL
- Drug uptake [16]: Active
- AUC(0-t) [17]: 18300 ng·h/mL
- bioavailability [18]: 44.8%
- half-life [19]: 2.26 h
- Activity (MV4-11 [2]): Dose-dependent-effect; Activity Was Better Than (+)-Jq1
- half-life [20]: 1.06 h
- CL [21]: 2 10^-4(mg/kg)/(ng/ml)/hr
- Activity (MV4-11 [22]): 83.2%
- AUC(0-inf) [23]: 20900 ng·h/mL
- MRT [24]: 1.32 h
- k el [25]: 0.000181 s⁻¹

Compound: Cc1nnc2ccc(-c3nc4cnc(-c5cnn(C)c5)cn4c3Nc3ccc(F)cc3)cn12
- IC50 (HL-60): 8250 nM
- IC50 (MV4-11 [1]): 4900 nM

Compound: CCc1nnc2ccc(-c3nc4cnc(N5CCN(C)CC5)cn4c3Nc3ccc(F)c(Cl)c3)cn12
- IC50 (MV4-11 [1]): 740 nM
